Where “and” joins values, the source holds several entries; their conditions need not be identical. Identical values can stand only once. Inconclusive results and toxic doses are left out. No stated cut-off is given here; in the data, active means T/C of 150% or more; inactive means T/C below 125%.
Test system: L1210 leukemia ip in BDF1 mice, survival T/C
Assay: NCI In Vivo Anticancer Drug Screen. Data for tumor model L1210 Leukemia (intraperitoneal) in B6D2F1 (BDF1) mice
Conditions: endpoint: mean survival time, higher = longer survival
Procedure, shortened: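 In this screen, tumor-bearing mice given compound are compared to those given vehicle, and their survival values are reported as a treated-to-control quotient.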

[1] = dose: 100.0 mg/kg/injection, schedule: Q04DX002 (ip), vehicle: saline
[2] = dose: 200.0 mg/kg/injection, schedule: Q04DX002 (ip), vehicle: saline
[3] = dose: 400.0 mg/kg/injection, schedule: Q04DX002 (ip), vehicle: saline
[4] = dose: 100.0 mg/kg/injection, schedule: Q01DX001 (ip), vehicle: saline with Tween-80
[5] = dose: 25.0 mg/kg/injection, schedule: Q01DX009 (ip), vehicle: saline
[6] = dose: 50.0 mg/kg/injection, schedule: Q01DX009 (ip), vehicle: Klucel (hydroxypropylcellulose) (HPC)
[7] = dose: 100.0 mg/kg/injection, schedule: Q01DX009 (ip), vehicle: Klucel (hydroxypropylcellulose) (HPC)
[8] = dose: 200.0 mg/kg/injection, schedule: Q01DX009 (ip), vehicle: Klucel (hydroxypropylcellulose) (HPC)
[9] = dose: 50.0 mg/kg/injection, schedule: Q01DX009 (ip), vehicle: saline
[10] = dose: 100.0 mg/kg/injection, schedule: Q01DX009 (ip), vehicle: saline
[11] = dose: 200.0 mg/kg/injection, schedule: Q01DX009 (ip), vehicle: saline
[12] = dose: 400.0 mg/kg/injection, schedule: Q01DX009 (ip), vehicle: Klucel (hydroxypropylcellulose) (HPC)
[13] = dose: 100.0 mg/kg/injection, schedule: Q04DX003 (ip), vehicle: Klucel (hydroxypropylcellulose) (HPC)
[14] = dose: 200.0 mg/kg/injection, schedule: Q04DX003 (ip), vehicle: Klucel (hydroxypropylcellulose) (HPC)
[15] = dose: 400.0 mg/kg/injection, schedule: Q04DX003 (ip), vehicle: Klucel (hydroxypropylcellulose) (HPC)

Measured: T/C

C=C1CC(CCCCC2CC(=C)C(=O)O2)OC1=O (configuration not stated)
inactive: [1] 108 % of control | [2] 101 % of control | [3] 108 % of control

Cc1cccc(Nc2c3ccccc3nc3ccccc23)c1
inactive: dose: 25.0 mg/kg/injection, schedule: Q01DX001 (ip), vehicle: saline with Tween-80 97 % of control | dose: 50.0 mg/kg/injection, schedule: Q01DX001 (ip), vehicle: saline with Tween-80 100 % of control | [4] 104 % of control

O=[N+]([O-])c1ccc(C[Se]c2ncnc3c2ncn3C2OC(CO)C(O)C2O)cc1 (configuration not stated)
inactive: dose: 3.12 mg/kg/injection, schedule: Q01DX009 (ip), vehicle: saline 100 % of control | dose: 6.25 mg/kg/injection, schedule: Q01DX005 (ip), vehicle: saline 106 % of control | dose: 6.25 mg/kg/injection, schedule: Q01DX009 (ip), vehicle: saline 98 % of control | dose: 12.5 mg/kg/injection, schedule: Q01DX005 (ip), vehicle: saline 96 % of control | dose: 12.5 mg/kg/injection, schedule: Q01DX009 (ip), vehicle: saline 98 % of control | dose: 12.5 mg/kg/injection, schedule: Q01DX009 (ip), vehicle: water 93 % of control | dose: 25.0 mg/kg/injection, schedule: Q01DX005 (ip), vehicle: saline 109 % of control | [5] 102 % of control | dose: 25.0 mg/kg/injection, schedule: Q01DX009 (ip), vehicle: water 98 % of control | dose: 50.0 mg/kg/injection, schedule: Q01DX009 (ip), vehicle: water 93 % of control

CC1(Br)C(=O)NC(=O)NC1O (configuration not stated)
inactive: [6] 98 % of control | [7] 94 % of control | [8] 94 % of control

CC(C)=CCCC(=O)NC(=O)NS(=O)(=O)c1ccc(Cl)cc1
inactive: [6] 109 % of control | [7] 100 % of control | [8] 96 % of control

Nc1nc(N)c2c(n1)SCC(/C=N/O)=N2
inactive: dose: 100.0 mg/kg/injection, schedule: Q01DX001 (ip), vehicle: Klucel (hydroxypropylcellulose) (HPC) 108 % of control | dose: 200.0 mg/kg/injection, schedule: Q01DX001 (ip), vehicle: Klucel (hydroxypropylcellulose) (HPC) 95 % of control | dose: 400.0 mg/kg/injection, schedule: Q01DX001 (ip), vehicle: Klucel (hydroxypropylcellulose) (HPC) 97 % of control

Cc1cc(C(C)(C)C)ccc1SC(=O)Nc1cc([N+](=O)[O-])ccc1Cl
inactive: dose: 100.0 mg/kg/injection, schedule: Q01DX001 (ip), vehicle: gum acacia 94 % of control and 95 % of control | dose: 100.0 mg/kg/injection, schedule: Q01DX009 (ip), vehicle: gum acacia 103 % of control | dose: 100.0 mg/kg/injection, schedule: Q04DX002 (ip), vehicle: gum acacia 99 % of control and 105 % of control | dose: 100.0 mg/kg/injection, schedule: Q04DX003 (ip), vehicle: gum acacia 97 % of control and 108 % of control | dose: 200.0 mg/kg/injection, schedule: Q01DX001 (ip), vehicle: gum acacia 95 % of control and 97 % of control | dose: 200.0 mg/kg/injection, schedule: Q01DX009 (ip), vehicle: gum acacia 102 % of control | dose: 200.0 mg/kg/injection, schedule: Q04DX002 (ip), vehicle: gum acacia 103 % of control and 115 % of control | dose: 200.0 mg/kg/injection, schedule: Q04DX003 (ip), vehicle: gum acacia 96 % of control and 99 % of control | dose: 400.0 mg/kg/injection, schedule: Q01DX001 (ip), vehicle: gum acacia 94 % of control and 95 % of control | dose: 400.0 mg/kg/injection, schedule: Q04DX002 (ip), vehicle: gum acacia 101 % of control and 105 % of control | dose: 400.0 mg/kg/injection, schedule: Q04DX003 (ip), vehicle: gum acacia 101 % of control and 91 % of control

CC[N+](C)(CC)CC1CC(C)OC1=O (configuration not stated)
inactive: [9] 95 % of control | [10] 109 % of control | [11] 98 % of control

CC(C)(C)OC(=O)NC(CC(N)=O)C(=O)ON1C(=O)CCC1=O (configuration not stated)
inactive: [5] 95 % of control | [9] 99 % of control | [10] 86 % of control | [1] 108 % of control | [11] 94 % of control and 99 % of control | [2] 86 % of control | dose: 400.0 mg/kg/injection, schedule: Q01DX009 (ip), vehicle: saline 105 % of control | [3] 105 % of control

OC/C=C/c1cccs1
inactive: [1] 98 % of control | [2] 95 % of control

COc1ccc(N=NN(C(C)=O)c2ccccc2)cc1
inactive: [7] 111 % of control | dose: 100.0 mg/kg/injection, schedule: Q04DX003 (ip), vehicle: saline 102 % of control | [8] 110 % of control | dose: 200.0 mg/kg/injection, schedule: Q04DX003 (ip), vehicle: saline 111 % of control | [12] 96 % of control | dose: 400.0 mg/kg/injection, schedule: Q04DX003 (ip), vehicle: saline 123 % of control

C[N+]1=C(C(=O)c2ccc(O)cc2)c2ccc(O)cc2CC1
inactive: dose: 50.0 mg/kg/injection, schedule: Q01DX001 (ip), vehicle: saline 107 % of control | dose: 100.0 mg/kg/injection, schedule: Q01DX001 (ip), vehicle: saline 106 % of control | dose: 200.0 mg/kg/injection, schedule: Q01DX001 (ip), vehicle: saline 119 % of control

O=C1CCC23/C=C/C(=O)NCCCCNCCCNC(=O)/C=C/c4ccc(c2c4)OC3C1 (configuration not stated)
inactive: [4] 101 % of control | dose: 200.0 mg/kg/injection, schedule: Q01DX001 (ip), vehicle: saline with Tween-80 95 % of control | dose: 400.0 mg/kg/injection, schedule: Q01DX001 (ip), vehicle: saline with Tween-80 91 % of control

O=NN(CCCl)C(=O)Nc1cccc2cccnc12
inactive: dose: 0.62 mg/kg/injection, schedule: Q01DX001 (ip), vehicle: carboxymethylcellulose (CMC) 112 % of control | dose: 1.25 mg/kg/injection, schedule: Q01DX001 (ip), vehicle: carboxymethylcellulose (CMC) 117 % of control | dose: 2.5 mg/kg/injection, schedule: Q01DX001 (ip), vehicle: carboxymethylcellulose (CMC) 117 % of control

CC(C)=NNc1ccnc(SCc2ccccc2)n1
inactive: [13] 96 % of control | [14] 97 % of control | [15] 102 % of control

O=C(Nc1ccccc1)OCC(OC(=O)Nc1ccccc1)C(COC(=O)Nc1ccccc1)OC(=O)Nc1ccccc1 (configuration not stated)
inactive: dose: 25.0 mg/kg/injection, schedule: Q04DX002 (ip), vehicle: saline with Tween-80 100 % of control | dose: 50.0 mg/kg/injection, schedule: Q04DX002 (ip), vehicle: saline with Tween-80 100 % of control | dose: 100.0 mg/kg/injection, schedule: Q04DX002 (ip), vehicle: saline with Tween-80 92 % of control | dose: 400.0 mg/kg/injection, schedule: Q04DX002 (ip), vehicle: saline with Tween-80 88 % of control

Cc1ccc(S(=O)(=O)/C=C(/I)c2ccccc2)cc1
inactive: dose: 100.0 mg/kg/injection, schedule: Q01DX009 (ip), vehicle: saline with Tween-80 104 % of control | dose: 100.0 mg/kg/injection, schedule: Q04DX003 (ip), vehicle: saline with Tween-80 95 % of control | dose: 200.0 mg/kg/injection, schedule: Q01DX009 (ip), vehicle: saline with Tween-80 100 % of control | dose: 200.0 mg/kg/injection, schedule: Q04DX003 (ip), vehicle: saline with Tween-80 92 % of control | dose: 400.0 mg/kg/injection, schedule: Q01DX009 (ip), vehicle: saline with Tween-80 94 % of control | dose: 400.0 mg/kg/injection, schedule: Q04DX003 (ip), vehicle: saline with Tween-80 104 % of control

Cc1ccc(N)c(F)c1
inactive: dose: 100.0 mg/kg/injection, schedule: Q04DX002 (sc), vehicle: olive oil, sesame oil, peanut oil 93 % of control | dose: 200.0 mg/kg/injection, schedule: Q04DX002 (sc), vehicle: olive oil, sesame oil, peanut oil 98 % of control | dose: 400.0 mg/kg/injection, schedule: Q04DX002 (sc), vehicle: olive oil, sesame oil, peanut oil 104 % of control

O=C(Nc1ccc(Cl)cc1)Nc1ncc(Cl)s1
inactive: [7] 94 % of control | [8] 96 % of control | [12] 89 % of control

Cc1nc(/N=N/c2nc(C)c(C)[nH]2)[nH]c1C
inactive: [7] 95 % of control | [13] 88 % of control | [8] 104 % of control | [14] 93 % of control | [12] 92 % of control | [15] 93 % of control

O=C(Nc1ccccc1C(F)(F)F)c1cccc(Cl)c1
inactive: dose: 50.0 mg/kg/injection, schedule: Q01DX009 (ip), vehicle: saline + alcohol 89 % of control | dose: 100.0 mg/kg/injection, schedule: Q01DX009 (ip), vehicle: saline + alcohol 101 % of control | dose: 200.0 mg/kg/injection, schedule: Q01DX009 (ip), vehicle: saline + alcohol 94 % of control

— PubChem BioAssay AID248 (DTP/NCI, 2004)
